pEC50: −log10 of the molar value.
How the values were obtained:
human 5-HT2A receptor = target: T1, human 5-HT2A receptor (Homo sapiens, UniProt P28223); assay: Human 5-HT2A functional assay (calcium mobilisation in CHO-K1 cells, FLIPR); type: cell-based; conditions: based on agonism: EC50 5-HT2A/EC50 5-HT2C
T1 construct: expressed in transfected cells; host or cells: CHO-K1
Procedure, shortened: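 CHO-K1 cells stably expressing human 5-HT2A, serum-starved overnight and loaded with calcium dye plus 0.07% probenecid, were given compound (10^−10 to 10^−5 M) for agonism, then serotonin at 3×10^−8 M after 8 min for antagonism. FLIPR calcium responses were normalised to serotonin maximum, and EC50/IC50 came from four-parameter fits, with Kb via Cheng–Prusoff.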

5-HT2C receptor = target: T2, 5-HT2C receptor (Homo sapiens, UniProt P28335); assay: Human 5-HT2C functional assay (beta-arrestin2 recruitment, U2OS_HTR2C_β-Arrestin cells); type: cell-based; conditions: for pEC50: Potency (EC50 5-HT2C) in functional assay, agonism, read-out: EC50 5-HT2C; for Emax: relative efficacy vs maximal effect induced by 5-HT (defined as 100%)
T2 construct: host or cells: U2OS
T2 sequence (P28335 33-458): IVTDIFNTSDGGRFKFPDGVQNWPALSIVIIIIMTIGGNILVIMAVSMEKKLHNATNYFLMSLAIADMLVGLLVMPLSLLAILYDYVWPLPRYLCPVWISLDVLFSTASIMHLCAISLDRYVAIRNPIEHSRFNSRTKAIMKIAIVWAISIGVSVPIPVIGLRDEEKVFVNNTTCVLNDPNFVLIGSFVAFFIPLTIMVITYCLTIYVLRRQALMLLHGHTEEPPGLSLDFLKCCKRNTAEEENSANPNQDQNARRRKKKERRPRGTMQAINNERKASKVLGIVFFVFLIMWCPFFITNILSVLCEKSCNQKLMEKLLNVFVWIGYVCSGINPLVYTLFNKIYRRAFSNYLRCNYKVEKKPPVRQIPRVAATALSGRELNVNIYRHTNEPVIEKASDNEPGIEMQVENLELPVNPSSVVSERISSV
T2 sequence (P32121 whole entry partner): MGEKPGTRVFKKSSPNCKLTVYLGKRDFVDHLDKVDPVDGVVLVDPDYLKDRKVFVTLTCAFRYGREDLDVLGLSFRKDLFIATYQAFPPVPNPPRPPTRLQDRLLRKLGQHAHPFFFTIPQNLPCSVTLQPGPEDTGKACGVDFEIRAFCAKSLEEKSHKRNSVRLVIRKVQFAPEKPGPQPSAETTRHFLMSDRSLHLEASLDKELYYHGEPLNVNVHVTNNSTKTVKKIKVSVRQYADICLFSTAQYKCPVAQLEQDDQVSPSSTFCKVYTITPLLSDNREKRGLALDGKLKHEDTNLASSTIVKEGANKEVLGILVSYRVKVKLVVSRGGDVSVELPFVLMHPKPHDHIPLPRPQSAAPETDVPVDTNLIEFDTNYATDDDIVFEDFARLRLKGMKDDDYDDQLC
Procedure, shortened: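 U2OS cells expressing human 5-HT2C with β-arrestin2 enzyme-fragment complementation; switched to 1% serum medium 24 h after plating, compounds added next day for 1.5 h. β-Galactosidase activity read by chemiluminescence; response expressed as percent of 10 μM 5-HT or maximal 5-HT effect (relative efficacy).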

[1] = Metabolic stability in human liver microsomes, unbound intrinsic clearance; type: in vitro ADME; conditions: liver microsomes, pH 7.4; unbound intrinsic clearance (human); Clint unbound = Cl int/fu mic; read-out: Cl int, mic unb. (h)
Procedure, shortened: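 Compound at 0.5 μM incubated with human liver microsomes (0.25 mg/mL) in 0.05 M potassium phosphate pH 7.4 at 37° C, started with 1.0 mM NADPH; sampled 0–30 min, parent quantified by LC-MS/MS. First-order t1/2 gives CLint (uL/min/mg), scaled to L/h/kg; unbound CLint = CLint/fu mic.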

human 5-HT2B receptor = target: T3, human 5-HT2B receptor (Homo sapiens, UniProt P41595); assay: Human 5-HT2B functional assay (calcium mobilisation in CHO-FlpIn cells, FLIPR); type: cell-based; conditions: based on agonism: EC50 5-HT2B/EC50 5-HT2C
T3 construct: expressed in transfected cells; host or cells: CHO-FlpIn
T3 sequence (P41595 whole entry): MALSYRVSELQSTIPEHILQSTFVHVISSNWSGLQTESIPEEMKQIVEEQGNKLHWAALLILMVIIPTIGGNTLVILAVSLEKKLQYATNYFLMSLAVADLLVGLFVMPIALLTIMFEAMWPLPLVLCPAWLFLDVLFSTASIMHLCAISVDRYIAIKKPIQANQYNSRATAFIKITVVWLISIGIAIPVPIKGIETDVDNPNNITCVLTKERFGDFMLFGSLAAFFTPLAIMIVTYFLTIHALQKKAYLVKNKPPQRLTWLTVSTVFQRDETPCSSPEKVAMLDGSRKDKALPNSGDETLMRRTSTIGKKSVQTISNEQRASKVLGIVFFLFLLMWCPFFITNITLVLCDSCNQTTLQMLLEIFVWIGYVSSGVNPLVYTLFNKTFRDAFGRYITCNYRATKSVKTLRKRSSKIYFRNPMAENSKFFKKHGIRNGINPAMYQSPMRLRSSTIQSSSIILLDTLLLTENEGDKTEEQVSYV
Procedure, shortened: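 CHO-FlpIn cells stably expressing human 5-HT2B, serum-starved 4 h and Ca5 dye-loaded, received compound (10^−10 to 10^−5 M) for agonism, then 10^−8 M serotonin after 8 min for antagonism; peak calcium read by FLIPR. Efficacy as % serotonin maximum; EC50/IC50 from four-parameter fits, Kb via Cheng–Prusoff.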

T1 sequence (P28223 whole entry): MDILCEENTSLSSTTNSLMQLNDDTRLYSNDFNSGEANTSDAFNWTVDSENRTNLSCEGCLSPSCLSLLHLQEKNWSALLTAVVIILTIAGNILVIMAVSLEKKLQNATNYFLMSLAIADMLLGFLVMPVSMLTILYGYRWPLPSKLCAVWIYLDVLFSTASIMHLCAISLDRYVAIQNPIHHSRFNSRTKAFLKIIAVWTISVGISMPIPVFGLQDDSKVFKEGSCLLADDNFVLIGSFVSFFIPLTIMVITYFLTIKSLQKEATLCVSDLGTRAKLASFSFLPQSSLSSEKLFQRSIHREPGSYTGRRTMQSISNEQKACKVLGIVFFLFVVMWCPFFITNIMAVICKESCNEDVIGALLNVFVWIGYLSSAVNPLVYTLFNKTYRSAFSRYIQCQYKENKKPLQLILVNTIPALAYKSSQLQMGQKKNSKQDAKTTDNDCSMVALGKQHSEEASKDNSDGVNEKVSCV

| Structure (SMILES) | Selectivity over 5-HT2A (human 5-HT2A receptor) | pEC50 (5-HT2C receptor) | Emax (5-HT2C receptor) | CLint scaled at 0.5 μM [1] | Selectivity over 5-HT2B (human 5-HT2B receptor) |
| --- | --- | --- | --- | --- | --- |
| C#Cc1cc(F)c2c(c1)N1CCNC[C@H]1C[C@@H](COC)O2.O=C(O)C(O)C(O)C(=O)O [Example 36, (4aR,6S)-10-Ethynyl-8-fluoro-6-(methoxymethyl)-2,3,4,4a,5,6-hexahydro-1H-pyrazino[2,1-d][1,5]benzoxazepine; (2R,3R)-2,3-dihydroxybutanedioic acid] | + (from 10 to 30) | 6.00 to 6.70 | 50 to 70% | 83.3 to 833 mL/min/kg | + (from 10 to 30) |
| COC[C@@H]1C[C@@H]2CNCCN2c2cc(F)cc(C(F)(F)F)c2O1.Cl [Example 22, (4aR,6S)-10-Fluoro-6-(methoxymethyl)-8-(trifluoromethyl)-2,3,4,4a,5,6-hexahydro-1H-pyrazino[2,1-d][1,5]benzoxazepine hydrochloride] | +++ (>100) | > 7.70 | > 70% | < 83.3 mL/min/kg | ++ (from >30 to 100) |
| COC[C@@H]1C[C@@H]2CNCCN2c2c(F)c(F)cc(C#N)c2O1.Cl [Example 28, (4aR,6S)-10,11-Difluoro-6-(methoxymethyl)-2,3,4,4a,5,6-hexahydro-1H-pyrazino[2,1-d][1,5]benzoxazepine-8-carbonitrile hydrochloride] | ++ (from >30 to 100) | 6.70 to 7.70 | > 70% | < 83.3 mL/min/kg | + (from 10 to 30) |
| COC[C@@H]1C[C@@H]2CNCCN2c2cccc(C#N)c2O1.Cl [Example 12, (4aR,6S)-6-(Methoxymethyl)-2,3,4,4a,5,6-hexahydro-1H-pyrazino[2,1-d][1,5]benzoxazepine-8-carbonitrile hydrochloride] | +++ (>100) | 6.70 to 7.70 | > 70% | 83.3 to 833 mL/min/kg | + (from 10 to 30) |
| COC[C@@H]1C[C@@H]2CNCCN2c2cc(F)cc(Cl)c2O1.Cl [Example 7, (4aR,6S)-8-Chloro-10-fluoro-6-(methoxymethyl)-2,3,4,4a,5,6-hexahydro-1H-pyrazino[2,1-d][1,5]benzoxazepine hydrochloride] | +++ (>100) | > 7.70 | > 70% | < 83.3 mL/min/kg | +++ (>100) |
| Cl.Fc1cc(Cl)c2c(c1)N1CCNC[C@H]1C[C@@H](COC(F)F)O2 [Example 24, (4aR,6S)-8-Chloro-6-(difluoromethoxymethyl)-10-fluoro-2,3,4,4a,5,6-hexahydro-1H-pyrazino[2,1-d][1,5]benzoxazepine hydrochloride] | +++ (>100) | 6.70 to 7.70 | 50 to 70% | 83.3 to 833 mL/min/kg | ++ (from >30 to 100) |
| COC[C@H]1C[C@@H]2CNCCN2c2cccc(Cl)c2O1.O=C(O)C(F)(F)F [Example 2, (4aR,6R)-8-Chloro-6-(methoxymethyl)-2,3,4,4a,5,6-hexahydro-1H-pyrazino[2,1-d][1,5]benzoxazepine; 2,2,2-trifluoroacetic acid] | +++ (>100) | 6.70 to 7.70 | 50 to 70% | < 83.3 mL/min/kg | +++ (>100) |
| C#Cc1cc(F)cc2c1O[C@H](COC)C[C@@H]1CNCCN21.Cl [Example 34, (4aR,6S)-8-Ethynyl-10-fluoro-6-(methoxymethyl)-2,3,4,4a,5,6-hexahydro-1H-pyrazino[2,1-d][1,5]benzoxazepine hydrochloride] | +++ (>100) | > 7.70 | > 70% | < 83.3 mL/min/kg | + (from 10 to 30) |
| COC[C@H]1C[C@@H]2CNCCN2c2cc(F)cc(C(F)F)c2O1.Cl [Example 32, (4aR,6R)-8-(Difluoromethyl)-10-fluoro-6-(methoxymethyl)-2,3,4,4a,5,6-hexahydro-1H-pyrazino[2,1-d][1,5]benzoxazepine hydrochloride] | ++ (from >30 to 100) | 6.00 to 6.70 | > 70% | < 83.3 mL/min/kg | ++ (from >30 to 100) |
| COC[C@@H]1C[C@@H]2CNCCN2c2cccc(C(F)F)c2O1.Cl [Example 6, (4aR,6S)-8-(Difluoromethyl)-6-(methoxymethyl)-2,3,4,4a,5,6-hexahydro-1H-pyrazino[2,1-d][1,5]benzoxazepine hydrochloride] | +++ (>100) | > 7.70 | > 70% | < 83.3 mL/min/kg | ++ (from >30 to 100) |
| COC[C@@H]1C[C@@H]2CNCCN2c2c(F)c(F)cc(C(F)F)c2O1.Cl [Example 26, (4aR,6S)-8-(Difluoromethyl)-10,11-difluoro-6-(methoxymethyl)-2,3,4,4a,5,6-hexahydro-1H-pyrazino[2,1-d][1,5]benzoxazepine hydrochloride] | +++ (>100) | > 7.70 | > 70% | < 83.3 mL/min/kg | +++ (>100) |
| COC[C@@H]1C[C@@H]2CNCCN2c2c(F)c(F)cc(C(F)(F)F)c2O1.Cl [Example 56, (4aR,6S)-10,11-Difluoro-6-(methoxymethyl)-8-(trifluoromethyl)-2,3,4,4a,5,6-hexahydro-1H-benzo[b]pyrazino[1,2-d][1,4]oxazepine hydrochloride] | +++ (>100) | 6.70 to 7.70 | > 70% | < 83.3 mL/min/kg | +++ (>100) |
| COC[C@@H]1C[C@@H]2CNCCN2c2c(F)ccc(Cl)c2O1.O=C(O)/C=C/C(=O)O [Example 15, (4aR,6S)-8-Chloro-11-fluoro-6-(methoxymethyl)-2,3,4,4a,5,6-hexahydro-1H-pyrazino[2,1-d][1,5]benzoxazepine; fumaric acid] | +++ (>100) | > 7.70 | > 70% | < 83.3 mL/min/kg | +++ (>100) |
| COC[C@@H]1C[C@@H]2CNCCN2c2c(F)c(F)cc(Cl)c2O1.Cl [Example 16, (4aR,6S)-8-Chloro-10,11-difluoro-6-(methoxymethyl)-2,3,4,4a,5,6-hexahydro-1H-pyrazino[2,1-d][1,5]benzoxazepine hydrochloride] | +++ (>100) | > 7.70 | > 70% | < 83.3 mL/min/kg | +++ (>100) |

From patent US20200002354A1, “HEXAHYDROPYRAZINOBENZ- OR -PYRIDO-OXAZEPINES CARRYING AN OXYGEN-CONTAINING SUBSTITUENT AND USE THEREOF IN THE TREATMENT OF 5-HT2C-DEPENDENT DISORDERS” (AbbVie Deutschland GmbH & Co. KG, priority 2015, published 2020)
